Key:
[1] = system: CD40 stimulation of peripheral B cells by rhsCD154; assay: rhsCD154-induced B cell activation (CD80 and CD86 membrane expression); type: cell-based, human
Procedure: The histograms of 4A show the effect of the anti-CD154 peptides and the control peptide 4.10-ala, on the activation B cells induced by stimulation with a soluble recombinant human CD154 molecule (rhsCD154). B cells were stimulated for 48 hours with rhsCD154 in the absence and in the presence of a blocking anti-human CD154 antibody or one of the seven selected peptides. Peripheral B cell activation was evaluated by flow cytometry, as the membrane expression of the co-stimulatory molecules CD80 and CD86. […] On the contrary, the activation is prevented when rhsCD154 is used in combination with a blocking anti-human CD154 antibody or with peptide 4.10 (SEQ ID NO: 6).
B cells are known to constitutively express the CD40 molecule on the cells membrane (van Kooten C. et al, J. Leukoc. Biol. 2000). Stimulation of CD40 by CD154-expressing activated T cells, results in B cells activation, proliferation and isotype switching. The inventors employed B cells isolated from whole peripheral blood of healthy donors by gradient-Ficoll centrifugation and immunomagnetical separation (MACS systems—Milteniy). The quiescent B cells thereby obtained, were then stimulated with a soluble form of human recombinant CD154 (rhsCD154) to induce activation and expression of the co-stimulatory molecules CD80 (B7-1) and CD86 (B7-2) on the cell membrane. A drastic increase in membrane expression of CD80 and CD86 on the cell surface of peripheral B cells, after stimulation for 48 hours with rhsCD154 (100 ng/ml) was observed. […] In contrast, pre-incubation for 15 minutes at 37° C. of rhsCD154 (100 ng/ml) with peptide 4.10 (SEQ. ID NO: 6), prior to lymphocyte stimulation, blocked B cells stimulation and the related expression of CD80 and CD86. […] The results are the mean±standard deviation of five different experiments. Similar results were also obtained with B cells isolated from human spleen fragments. […] These experiments were carried out on […] naive B cells, obtained from peripheral blood by negative selection, by depletion of mature lymphocytes from the B cell pool by immunomagnetic separation (MACS Systems Milteniy).

[2] = molecular target: T1, human CD154 expressed on the surface of J558L cells (Homo sapiens, UniProt P29965); assay: Binding of -His6-tagged peptides to J558L CD154+ cells by flow cytometry; details: -His6 peptides 60 μM, 30 minutes at room temperature
T1 construct: expressed in transfected cells; host or cells: J558L murine myeloma cell line transfected with human CD154
T1 sequence (P29965 1-261): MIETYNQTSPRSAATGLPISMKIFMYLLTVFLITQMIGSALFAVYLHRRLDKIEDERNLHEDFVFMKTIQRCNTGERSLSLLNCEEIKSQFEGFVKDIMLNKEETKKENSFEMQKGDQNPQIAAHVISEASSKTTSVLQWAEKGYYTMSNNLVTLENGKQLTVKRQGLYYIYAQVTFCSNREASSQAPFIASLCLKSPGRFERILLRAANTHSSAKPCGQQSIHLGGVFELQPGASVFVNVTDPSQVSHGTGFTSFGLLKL
Procedure: FIG. 2 represents the binding of the seven peptides obtained from the human CD154-binding clones and tagged with a 6 histidines tail (-His6) to the J558L CD154^+ cells. […] The cells were incubated with each of the -His6-tagged peptides and then with a phycoerythrin-conjugated secondary antibody specific for the -His6 tail. The dotted histogram is the isotopic control, whilst the black line is the binding intensity of the CD154-specific peptides [4.2=4.3=CPSGHTKAC (SEQ ID NO: 1), 4.4=CGTHSSRIC (SEQ ID NO: 2), 4.6=CLGTQNKEC (SEQ ID NO: 3), 4.7=4.12=CTPGKPHSC (SEQ ID NO: 4), 4.8=CKAASANIC (SEQ ID NO: 5), 4.10=CLPTRHMAC (SEQ ID NO: 6) and 4.11=CLSAVHNMC (SEQ ID NO: 7)]. For each experimental condition, 10,000 events were analyzed and the values are the mean and standard deviation of 3 different experiments.
(§1) The peptides were synthesized and conjugated with biotin (-bio) or with a 6-histidine tail (-his6) so as to enable in vitro and in vivo localization. […] Furthermore, a competition assay between the peptides and an anti-human CD154 fluorescein-conjugated antibody (Serotec) specifically recognizing the active site of CD154 was carried out. The J558L cells were incubated with the his6-peptides for 30 minutes at room temperature and then with anti-human CD154 fluorescein-conjugated antibody for another 30 minutes at room temperature. […] In order to identify the amino acid residues of the amino acid sequence of peptide 4.10 which are essential to the binding to CD154, three different peptides were synthesized, each one carrying a point mutation, which amino acid sequences differ from that of peptide 4.10 by replacement of the amino acid residues at positions 4, 5, 6, respectively, with one alanine residue.
The mutated peptides were not capable of recognizing human CD154 expressed at the surface of J558L cells (data not shown).
Similar results were obtained with the four modified peptides 4.101, 4.102, 4.103 e 4.104 having the amino acid sequences illustrated in table II.

HUVEC [3] = assay: rhsCD154-induced HUVEC motility (time-lapse migration); type: cell-based, human
Procedure: Peptide 4.10 (SEQ ID NO: 6), contrary to control peptide 4.10-ala (SEQ ID NO: 8), inhibits the rhsCD154-induced motility of endothelial cells.
It is known that an inflammatory process, once triggered, can be preserved by cells outside the immune system expressing particular receptors or lymphocyte co-stimulatory molecules, such as CD40 and its ligand CD154, such as e.g. endothelial cells from the vascular wall. […] In particular, the cell migration experiments were carried out with HUVEC cells plated on gelatin at a density of 4×10^3 in complete endothelial cell medium in the presence of 20% serum. The following day, the endothelial medium was replaced with low glucose DMEM (Sigma) with a reduced serum concentration (5%), in the presence or absence of rhsCD154 (100 ng/ml).
Furthermore, in order to evaluate the inhibitory effect, rhsCD154 (100 ng/ml) was pre-incubated for 15 minutes at 37° C. with peptide 4.10 (SEQ. ID NO: 6), or with control peptide 4.10-ala (SEQ. ID NO: 8), or with a blocking anti-human CD154 antibody. The flasks were then observed at 10× magnification for a period of 4 hours under a phase contrast inverted microscope equipped with a thermostatic chamber (at about 37° C.). The cells were photographed with a camera connected to the microscope, over the whole length of time of 4 hours at regular intervals of 15 minutes each. The migratory speed of each of the cells was calculated based on the position of the nucleus of each single cell in each single frame, using an image analysis software and, as a result, the average cell migratory speed (1 standard deviation) was calculated for each experimental condition. […] As a further confirmation of the ability of peptide 4.10 to prevent human endothelial CD40 stimulation by rhsCD154 (100 ng/ml), HUVECs (3.5×10^4) were subjected to an in vitro angiogenesis assay. HUVECs were plated on a tumor matrix (Matrigel, BD) capable of promoting the formation of super cellular organization, in a basal RPMI medium supplemented with 5% serum. […]

[4] = molecular target: T2, active site of human CD154 (Homo sapiens, UniProt P29965); assay: Competition with anti-human CD154 fluorescein-conjugated antibody on J558L cells; type: binding; details: -His6 peptides 30 minutes at room temperature, then antibody
T2 construct: expressed in transfected cells; host or cells: J558L murine myeloma cell line transfected with human CD154
T2 sequence (P29965 1-261): T1 sequence (P29965 1-261)
Procedure: The murine myeloma cells transfected with human CD154, J558L, were incubated with each of the seven anti-CD154 peptides tagged with a 6 histidines tail (-His6), and then with the anti-CD154 fluorescein-conjugated antibody. The ability of the peptides to compete with the anti-CD154 antibody for the binding to the CD154 molecule expressed on the surface of the J558L cells was evaluated by flow cytometry, as the reduction in the fluorescence intensity compared to the positive control represented by cells incubated with the anti-human CD154 fluorescein-conjugated antibody alone. […] The amino acid sequence of the control peptide differs from that of peptide 4.10 in that an arginine residue is replaced with an alanine residue at amino acid position 5.
as §1

HUVEC [5] = assay: In vitro angiogenesis: cell cord formation of HUVECs on Matrigel; type: cell-based, human; details: pre-incubated with rhsCD154 100 ng/ml for 15 minutes at 37° C.; 4 hours
Source text: FIGS. 7B-F show representative images of cell cord formation ability on Matrigel under the various experimental conditions mentioned above (B=unstimulated control; C=rhsCD154; D=rhsCD154+ 4.10 peptide; E=rhsCD154+ 4.10-ala peptide; F=rhsCD154+ blocking anti-CD154 antibody). Peptide 4.10 of the invention (SEQ ID NO: 6), contrary to control peptide 4.10-ala (SEQ ID NO: 8), inhibits the rhsCD154-induced ability of the endothelial cells of forming cell cords.
Furthermore, in order to evaluate the inhibitory effect, rhsCD154 (100 ng/ml) was pre-incubated for 15 minutes at 37° C. with peptide 4.10 (SEQ. ID NO: 6), or with control peptide 4.10-ala (SEQ. ID NO: 8), or with a blocking anti-human CD154 antibody. The flasks were then observed at 10× magnification for a period of 4 hours under a phase contrast inverted microscope equipped with a thermostatic chamber (at about 37° C.). The cells were photographed with a camera connected to the microscope, over the whole length of time of 4 hours at regular intervals of 15 minutes each. The migratory speed of each of the cells was calculated based on the position of the nucleus of each single cell in each single frame, using an image analysis software and, as a result, the average cell migratory speed (1 standard deviation) was calculated for each experimental condition. […] As a further confirmation of the ability of peptide 4.10 to prevent human endothelial CD40 stimulation by rhsCD154 (100 ng/ml), HUVECs (3.5×10^4) were subjected to an in vitro angiogenesis assay. HUVECs were plated on a tumor matrix (Matrigel, BD) capable of promoting the formation of super cellular organization, in a basal RPMI medium supplemented with 5% serum. Upon incubation at 37° C. under 5% CO2 for 4 hours, the cells were observed under a contrast phase inverted microscope.

naive B cells = assay: Isotype switching of naive B cells induced by IL-4 and rhsCD154; type: cell-based, human; details: IL-4 0.4 ng/ml and rhsCD154 100 ng/ml, 96 hours, no inhibitor
Procedure: The graphics of FIG. 5A show the percentage of naive B cells undergoing isotype switching and expressing IgG, under basal condition with no stimulation, after stimulation for 72 hours with IL4 and CD154, […] anti-human CD154 antibody, […] 4.10 (SEQ ID NO: 6), respectively. Peptide 4.10 (SEQ ID NO: 6), just as the anti-CD154 antibody, is capable of strongly inhibiting the isotype switching of immunoglobulins induced by stimulation with rhsCD154 and IL4.
B cells are known to constitutively express the CD40 molecule on the cells membrane (van Kooten C. et al, J. Leukoc. Biol. 2000). Stimulation of CD40 by CD154-expressing activated T cells, results in B cells activation, proliferation and isotype switching. The inventors employed B cells isolated from whole peripheral blood of healthy donors by gradient-Ficoll centrifugation and immunomagnetical separation (MACS systems—Milteniy). The quiescent B cells thereby obtained, were then stimulated with a soluble form of human recombinant CD154 (rhsCD154) to induce activation and expression of the co-stimulatory molecules CD80 (B7-1) and CD86 (B7-2) on the cell membrane. A drastic increase in membrane expression of CD80 and CD86 on the cell surface of peripheral B cells, after stimulation for 48 hours with rhsCD154 (100 ng/ml) was observed. […]

human platelets = assay: Platelet aggregation assay (aggregometer); type: cell-based; details: priming 10 minutes at 37° C.; peptide 60 μM with CD154
Procedure: Platelet aggregation was measured with an aggregometer, as the increase in light transmission compared to the control. Priming of human platelets with the anti-human CD154 antibody in combination with rhsCD154 increases platelet aggregation upon stimulation with ADP 0.5 μM.
Finally, one of the major advantages of peptide 4.10 is its lack of reactivity towards human platelets. It is know that in the past, a number of clinical trials carried out to test promising anti-CD154 monoclonal antibodies were suddenly discontinued due to dramatic prothrombotic side effects (Kelsoe G. et al, J. Clin. Invest. 2003). The hypothesis is that the anti-CD154 antibodies had triggered a cross-reaction on the surface of human platelets expressing the receptor for the Fc immunoglobulin fraction (FcR) and, after activation, the CD154 molecule. Thus, the inventors tested the effect of peptide 4.10 on platelets, by a platelet aggregation assay. Such experiments were carried out by the use of a thermostatic aggregometer, equipped with a magnetic stirrer and a real time optical density meter. Platelet aggregation was evaluated as the change in optical density versus the reference sample (blank). The experiments were carried out on platelets extracted from peripheral whole blood of healthy donors collected in tubes containing 5 U/ml heparin. In particular, the platelet enriched plasma (PRP), was obtained by whole blood centrifugation at 900 rpm for 20 minutes, while the platelet poor plasma (PPP), used as the reference sample, was obtained collecting the supernatant after another centrifugation at 3000 rpm for 10 minutes. […] Similar results were obtained inducing platelet aggregation with 0.3 U/ml thrombin.

[6] = rhsCD154 100 ng/ml alone, 48 hours

“CLPTAHMAC (binding protein) [peptide 4.10-ala, control peptide; arginine at position 5 of peptide 4.10 replaced with alanine, reference compound]” was tested, and the “inhibition of rhsCD154-induced B cell activation (CD80 and CD86 expression)” value ([1]; 250 μM) was “neither affected the expression of CD80 and CD86”, the “binding to J558L CD154+ cells” value [2] was “least reactive” and the “effect on rhsCD154-induced motility of HUVEC” value (HUVEC [3]; pre-incubated with rhsCD154 100 ng/ml for 15 minutes at 37° C.) was “did not affect endothelial CD40 stimulation”. For the same substance, the “competition with anti-human CD154 fluorescein-conjugated antibody specific for the active site of CD154” value [4] was “complete inactivation of the peptide's ability to compete” and the “effect on rhsCD154-induced formation of vessel-like cell cords on Matrigel” value (HUVEC [5]) was “did not affect the ability of the cells to form vessel-like cell cords”.

With “rhsCD154: recombinant soluble form of human CD154, used as the CD40 stimulus [reference compound]” the “increase in membrane expression of CD80 compared to basal levels” value [1, 6] was 300%, the “increase in membrane expression of CD86 compared to basal levels” value [1, 6] was 274% and the “increase in the basal motility of cells” value (HUVEC [3]; rhsCD154 100 ng/ml alone) was “about 350%”. For the same substance, the cell migratory speed (HUVEC [3]; rhsCD154 100 ng/ml alone, basal lower than 12 μm/h) was 42 μm/h, the “increase in the number of B cells expressing membrane IgG” value (naive B cells) was 25% and the “platelet aggregation induced by ADP 0.5 μM after priming” value (human platelets) was “did not enhance platelet aggregation”.
